{
  "source": "paper PMC10790670",
  "about": "(Environmental science & technology, 2023)",
  "key": {"[1]": {"conditions": "predicted values from EPA Chemistry Dashboard; cited from earlier work"}, "[2]": {"conditions": "cited from earlier work; for published half-lives: biological half-lives quoted in abstract"}, "[3]": {"conditions": "experimental values from EPA Chemistry Dashboard; cited from earlier work"}, "[4]": {"test": "Serum PFAS measurement by LC-HRMS, GenX Exposure Study participants", "conditions": "human, in vivo"}, "[5]": {"conditions": "both, human, in vivo"}, "[6]": {"conditions": "literature serum half-life, ref Li et al. 19"}, "[7]": {"conditions": "weighted average, ref Zhang et al. 16"}, "[8]": {"conditions": "literature serum half-life, ref Li et al. 12"}},
  "note": "Values joined by “and” are separate entries in the source; they are usually repeats but may differ in a detail not shown here. Identical values can stand only once. Like-named read-outs stand apart in the source and are kept apart here. Marks after values point to notes of the source that are not given here.",
  "data": [
    {"smiles": "O=C(O)C(F)(OC(F)(F)C(F)(F)C(F)(F)F)C(F)(F)F", "note": "(stereo not shown) [GenX, hexafluoropropylene oxide dimer acid]", "values": [
      {"measurement": "logKow", "setting": "[1]", "value": "5.13^a"},
      {"measurement": "half-life", "setting": "[2]; in workers, ECHA estimate", "value": 81, "unit": "h"},
      {"measurement": "half-life", "setting": "[2]; values from ECHA report", "value": "3.375^f days and 3.38^e days"}
    ]},
    {"smiles": "O=S(=O)(O)C(F)(F)C(F)(F)C(F)(F)C(F)(F)C(F)(F)C(F)(F)F", "note": "[PFHxS, perfluorohexanesulfonic acid]", "values": [
      {"measurement": "logKow", "setting": "[1]", "value": "3.48^a"},
      {"measurement": "half-life", "setting": "[2]; [6]", "value": "1661^e days"}
    ]},
    {"smiles": "O=C(O)C(F)(F)C(F)(F)C(F)(F)C(F)(F)C(F)(F)C(F)(F)F", "note": "[PFHpA, perfluoroheptanoic acid]", "values": [
      {"measurement": "logKow", "setting": "[3]", "value": "2.05^b"},
      {"measurement": "published half-lives", "setting": "[2]", "value": "30 to 60", "unit": "days"},
      {"measurement": "half-life", "setting": "[2]; [7]", "value": "464^i days"}
    ]},
    {"smiles": "O=S(=O)(O)C(F)(F)C(F)(F)C(F)(F)C(F)(F)C(F)(F)C(F)(F)C(F)(F)C(F)(F)F", "note": "[PFOS, perfluorooctanesulfonic acid]", "values": [
      {"measurement": "logKow", "setting": "[3]", "value": "5.61^b"},
      {"measurement": "published half-lives", "setting": "[2]", "value": "800 to 1200", "unit": "days"},
      {"measurement": "half-life", "setting": "[2]; [8]", "value": "1241^d days"}
    ]},
    {"smiles": "O=C(O)C(F)(F)C(F)(F)C(F)(F)C(F)(F)C(F)(F)C(F)(F)C(F)(F)C(F)(F)C(F)(F)C(F)(F)F", "note": "[PFUnA]", "values": [
      {"measurement": "logKow", "setting": "[3]", "value": "4.00^b"},
      {"measurement": "half-life", "setting": "[2]; [7]", "value": "3743^i days"}
    ]},
    {"smiles": "O=C(O)C(F)(F)OC(F)(F)OC(F)(F)OC(F)(F)OC(F)(F)OC(F)(F)F", "note": "[PFO5DoA, perfluoro-3,5,7,9,11-pentaoxadodecanoic acid]", "values": [
      {"measurement": "concentration at 5 months", "setting": "[4]", "value": 12.4, "unit": "ng/mL"},
      {"measurement": "concentration at 11 months", "setting": "[4]", "value": 8.91, "unit": "ng/mL"},
      {"measurement": "effect of age on concentration", "setting": "[5]", "value": "0.0160 ^* ng/mL/year"},
      {"measurement": "effect of gender concentration in males", "setting": "[5]", "value": 0.298, "unit": "ng/mL"}
    ]},
    {"smiles": "O=C(O)C(F)(F)C(F)(F)C(F)(F)C(F)(F)C(F)(F)C(F)(F)C(F)(F)C(F)(F)C(F)(F)F", "note": "[PFDA]", "values": [
      {"measurement": "logKow", "setting": "[3]", "value": "4.15^b"},
      {"measurement": "half-life", "setting": "[2]; [7]", "value": "3743^i days"}
    ]},
    {"smiles": "O=S(=O)(O)C(F)(F)C(F)(F)C(F)(F)C(F)(F)F", "note": "[PFBS, perfluorobutanesulfonic acid]", "values": [
      {"measurement": "logKow", "setting": "[3]", "value": "2.76^b"},
      {"measurement": "half-life", "setting": "[2]; ref Olsen et al. 54", "value": "26^h days"}
    ]},
    {"smiles": "O=S(=O)(O)C(F)(F)C(F)(F)C(F)(F)C(F)(F)C(F)(F)F", "note": "[PFPeS]", "values": [
      {"measurement": "logKow", "setting": "[1]", "value": "3.38^a"},
      {"measurement": "half-life", "setting": "[2]; [6]", "value": "343^e days"}
    ]},
    {"smiles": "O=C(O)C(F)(F)C(F)(F)C(F)(F)C(F)(F)C(F)(F)C(F)(F)C(F)(F)C(F)(F)F", "note": "[PFNA, perfluorononanoic acid]", "values": [
      {"measurement": "logKow", "setting": "[3]", "value": "3.54^b"},
      {"measurement": "half-life", "setting": "[2]; [7]", "value": "1417^i days"}
    ]},
    {"smiles": "O=S(=O)(O)C(F)(F)C(F)(F)C(F)(F)C(F)(F)C(F)(F)C(F)(F)C(F)(F)F", "note": "[PFHpS]", "values": [
      {"measurement": "logKow", "setting": "[1]", "value": "4.85^a"},
      {"measurement": "half-life", "setting": "[2]; [6]", "value": "533^e days"}
    ]},
    {"smiles": "O=S(=O)(O)C(F)(F)C(F)(F)OC(F)C(F)(F)F", "note": "(stereo not shown) [NVHOS, 1,1,2,2-tetrafluoro-2-(1,2,2,2-tetrafluoroethoxy)ethanesulfonic acid]", "values": [
      {"measurement": "concentration at 5 months", "setting": "[4]", "value": 1.14, "unit": "ng/mL"},
      {"measurement": "logKow", "setting": "[1]", "value": "2.58^a"}
    ]},
    {"smiles": "O=C(O)C(F)(F)OC(F)(F)OC(F)(F)OC(F)(F)F", "note": "[PFO3OA, perfluoro-3,5,7-trioxaoctanoic acid]", "values": [
      {"measurement": "concentration at 5 months", "setting": "[4]", "value": 1.02, "unit": "ng/mL"},
      {"measurement": "logKow", "setting": "[1]", "value": "6.07^a"}
    ]},
    {"smiles": "O=C(O)C(F)(F)C(F)(F)C(F)(F)C(F)(F)C(F)(F)F", "note": "[PFHxA, perfluorohexanoic acid]", "values": [
      {"measurement": "logKow", "setting": "[1]", "value": "2.8^a"},
      {"measurement": "published half-lives", "setting": "[2]", "value": "30 to 60", "unit": "days"},
      {"measurement": "half-life", "setting": "[2]; ref Russel et al. 52", "value": "32^g days"}
    ]},
    {"smiles": "O=C(O)C(F)(F)OC(F)(F)OC(F)(F)OC(F)(F)OC(F)(F)F", "note": "[PFO4DA, perfluoro-3,5,7,9-tetraoxadecanoic acid]", "values": [
      {"measurement": "concentration at 5 months", "setting": "[4]", "value": 5.6, "unit": "ng/mL"},
      {"measurement": "concentration at 11 months", "setting": "[4]", "value": 1.16, "unit": "ng/mL"},
      {"measurement": "effect of age on concentration", "setting": "[5]", "value": 0.0129, "unit": "ng/mL/year"},
      {"measurement": "effect of gender concentration in males", "setting": "[5]", "value": 0.376, "unit": "ng/mL"},
      {"measurement": "logKow", "setting": "[1]", "value": "8.53^a"}
    ]},
    {"smiles": "O=C(O)C(F)(F)C(F)(F)C(F)(F)C(F)(F)C(F)(F)C(F)(F)C(F)(F)F", "note": "[PFOA, perfluorooctanoic acid]", "values": [
      {"measurement": "logKow", "setting": "[3]", "value": "3.1^b"},
      {"measurement": "published half-lives", "setting": "[2]", "value": "800 to 1200", "unit": "days"},
      {"measurement": "half-life", "setting": "[2]; [8]", "value": "902^c days"},
      {"measurement": "half-life", "setting": "[2]; [6]", "value": "902^e days"}
    ]}
  ]
}
